In patent publication US11254635B2, “Emodin succinyl ester compound, preparation method therefor and application thereof” (JIANGSU KANION PHARMACEUTICAL CO., LTD., priority 2017, dated 2022):
Read-outs that look alike come from different tables or passages of the source.

Experiments:
[1] = tested on: rats with mixed hyperlipidemia; experiment: Blood lipid levels in rats with mixed hyperlipidemia (high-fat feed), Example 6; assay type: in vivo; settings: two weeks; for effect on TG in serum: high dose of the ester; for effect on TG in serum / effect on LDL-C in serum / effect on TC in serum: atorvastatin calcium 10 mg/kg, vs hyperlipidemia group; for effect on LDL-C in serum / effect on TC in serum: low, medium, high doses of the ester; for LDL-C / TC / TG: serum, high-fat diet
Method: (§1) Feeding rats with high-fat feed containing cholesterol, sucrose, lard, and sodium cholate can form a rat model of lipid metabolism disorders, and then the rats are administrated with drug, detect the effect of the test object on hyperlipidemia, and determine the effect of the test object on the lipid absorption, lipoprotein formation, lipid degradation or excretion in rats.
(§2) Second random grouping: After the establishment of the rat hyperlipidemia model, the blood lipids of the rats were measured, and rats in the hyperlipidemia model group were randomly divided into five groups, 11 rats in the positive drug group, 10 rats in each of the other groups. The five groups were the hyperlipidemia model group, the low-dose test object group (emodin succinyl ethyl ester in a dose of 10 mg/kg·d^−1), the medium-dose test object group (emodin succinyl ethyl ester in a dose of 20 mg/kg·d^−1), the high-dose test object group (emodin succinyl ethyl ester in a dose of 40 mg/kg·d^−1), and the positive control drug group (Atorvastatin calcium group in a dose of 10 mg/kg·d^−1), respectively.
In the experimental groups, rats in the blank control group were fed with maintenance feed and the remaining 5 groups were fed with high-fat diet. After 2 weeks, the levels of TG, TC, LDL-C and HDL-C in the serum of the rats were measured. The rats were weighed once a week.
(§3) The rats in the successfully grouped high-dose test object, medium-dose, and low-dose groups and positive control drug group (atorvastatin calcium group) were intragastrically administered daily. Rats in the blank control group and the hyperlipidemia model group were given corresponding doses of lysozyme.
(§4) Feeding conditions remained unchanged. The rats were weighed once a week. Blood were collected at the tip of the tail two weeks after drug administration and livers were taken, to determine the levels of TC, TG, LDL-C, and HDL-C in serum of the rats and the levels of TC and TG in the liver, and then the effect of the test object on the TC, TG, LDL-C and HDL-C in serum of the rats and the TC and TG in liver were observed.

[2] = tested on: rats with mixed hyperlipidemia; experiment: Levels of TC and TG in the liver of rats with mixed hyperlipidemia, Example 6; assay type: in vivo; settings: two weeks; for TC / TG: liver, high-fat diet; for effect on TC in liver / effect on TG in liver: low, medium, high doses of the ester, atorvastatin calcium 10 mg/kg, vs hyperlipidemia model group
Method: as §1, §2, §3, §4
(3) TC and TG in liver, measured after sampling

[3] = tested on: oleic acid-induced hyperlipemia cells (HepG2 cell line); experiment: Levels of TC and TG in oleic acid-induced hyperlipemia cells; assay type: cell-based; settings: for TC / TG: HepG2, oleic acid 200 μmol/L, 24 hours
Method: Oleic acid is added to culture HepG2 cells to induce a hyperlipemia cell model, and then the cells are given a test drug, the effect of the test object on the lipid level of the cells is detected.
When the degree of cell fusion reached about 80%, except for the normal group, cells in other groups were all added with oleic acid at a dose of 200 μmol/L, and then the cells were divided into five groups: the normal group, the oleic acid-induced hyperlipemia group, low-dose emodin succinyl ethyl ester group (5 μmol/L), the medium-dose emodin succinyl ethyl ester group (10 μmol/L) and the high dose emodin succinyl ethyl ester group (20 μmol/L). 24 hours later, the levels of TC and TG were measured.
The cells were digested with 0.25% trypsin to prepare a cell suspension; the cell suspension was centrifuged at 1000 rpm for 10 minutes; the supernatant was discarded, and the cell pellet was collected, washed with PBS once or twice, and configured at 1000 rpm for 10 minutes; the supernatant was discarded, and the cell pellet was collected.
200 μl of 2% TritonX-100 was added for lysis for 30 minutes.
First, the protein concentration of the sample was determined using the Beyotime kit. Then, 250 μl of working solution was added to a 96-well plate, 2.5 μl of distilled water was added to the blank wells, 2.5 μl of calibration solution was added to the calibration wells, 2.5 μl of sample was added to the sample wells, and they were all incubated for 10 minutes at 37° C. The OD values were measured by using a 510 nm microplate reader.
3.2.4 Calculation Formulas: Cholesterol content=(sample OD value−blank OD value)/(calibrated OD value−blank OD value)*5.17/protein concentration of the sample to be tested Triglyceride content=(sample OD value−blank OD value)/(calibrated OD value−blank OD value)*2.26/protein concentration of the sample to be tested.

[4] = tested on: skin wound of mice with type 1 diabetes; experiment: Wound healing of mice with diabetes (STZ model, 5 mm skin punch wound); assay type: in vivo, Kunming mice; settings: 100 μg/mL oil, 10 μL dripped on the wound once a day, 14 days; vs diabetes model, solvent control and emodin groups
Method: SPF-grade male Kunming mice (18-20 g) were adaptively fed with ordinary maintenance feed for 3-5 days, weighed and randomly divided into a blank control group (Control) and a diabetes model group. Mice in the diabetes model group were administrated with high-dose STZ (streptozotocin, 180 mg/kg) through intraperitoneal injection and fasting blood glucose was measured after one week. The mice successfully modeled were randomly divided into 5 groups, namely, the diabetes model group (Model), the solvent control group (Solvent), the positive drug (recombinant human epidermal growth factor) control group (EGF), the emodin group (DHS), and the emodin succinyl ethyl ester group (DHS-YSW).
Animals in each group were anesthetized with sodium pentobarbital (1%) and shaved on the back. A 5 mm skin punch was used to establish a 5 mm wound model at the highest part of the back. The Control group and the Model group were not treated with any drugs. The solvent control group was dripped with 10 μL of sterile vegetable oil. The positive drug group was dripped with 10 μL of recombinant human epidermal factor solution (2000 IU/mL) each day. The other groups were dripped on the wound with 10 μL of a corresponding drug, once a day for 14 consecutive days. […]
The experimental data were expressed as mean±standard error. […] The experimental results were all analyzed and graphed using GraphpadPrism6.0.

[5] = tested on: rats with mixed hyperlipidemia; experiment: Comparison of emodin succinyl ethyl ester and emodin in lowering blood lipid levels in rats with mixed hyperlipidemia, Example 7; assay type: in vivo
Method: Feeding rats with high-fat feed containing cholesterol, sucrose, lard and sodium cholate can form a rat model of lipid metabolism disorders and then the rats are administered with a drug, detect the effects of the test object on hyperlipidemia, and determine the effect of the test object on the lipid absorption, lipoprotein formation, lipid degradation or excretion in rats.
Second random grouping: After the establishment of the rat hyperlipidemia model, the blood lipids of the rats were measured, and rats in the hyperlipidemia model group were randomly divided into four groups, 11 rats in the positive drug group, 10 rats in each of the other groups. The four groups were the hyperlipidemia model group, the low-dose test object (emodin succinyl ethyl ester in a dose of 20 mg/kg·d^−1) group, the emodin (20 mg/kg·d^−1) group, and the positive control drug (Atorvastatin calcium group in a dose of 10 mg/kg·d^−1) group, respectively.
In the experimental groups, rats in the blank control group were fed with maintenance feed and the remaining 4 groups were fed with a high-fat diet. After 2 weeks, the levels of TG, TC, LDL-C and HDL-C in the serum of the rats were measured. The rats were weighed once a week.
as §3, with “grouped” for “grouped high-dose”, “object (emodin succinyl ethyl ester) group, emodin group” for “object, medium-dose, and low-dose groups”
Feeding conditions remained unchanged. The rats were weighed once a week. Blood were collected at the tip of the tail two weeks after drug administration. The effect of the test object on the TC, TG, LDL-C and HDL-C in serum of the rats were observed.

[6] = cited from earlier work
[7] = 10 mg/kg intragastrically once a day
[8] = 20 mg/kg intragastrically once a day
[9] = 40 mg/kg intragastrically once a day
[10] = low, medium and high doses (5, 10, 20 μmol/L), vs oleic acid group
[11] = 20 mg/kg·d^−1, two weeks, vs hyperlipidemia group
[12] = 20 mg/kg·d^−1 vs equivalent dose of emodin (20 mg/kg·d^−1), two weeks

In the case of `CC(C)c1c(C(=O)Nc2ccccc2)c(-c2ccccc2)c(-c2ccc(F)cc2)n1CC[C@@H](O)C[C@@H](O)CC(=O)[O-].CC(C)c1c(C(=O)Nc2ccccc2)c(-c2ccccc2)c(-c2ccc(F)cc2)n1CC[C@@H](O)C[C@@H](O)CC(=O)[O-].[Ca+2]` [Atorvastatin calcium, reference compound], the “effect on TG in serum” value [1] is reported as “significantly reduce”, the “effect on LDL-C in serum” value [1] is reported as “significantly reduce” and the “effect on TC in serum” value [1] is reported as “significantly reduce”. The LDL-C [1, 7] was 0.13 ± 0.03 mmol/L, the TC [1, 7] was 2.82 ± 1.02 mmol/L and the TG [1, 7] was 2.94 ± 0.20 mmol/L. The TC [2, 7] was 0.066 ± 0.004 mmol/L, the TG [2, 7] was 0.090 ± 0.008 mmol/L and the “effect on TC in liver” value [2] was “reduce”. For the same compound, the “effect on TG in liver” value [2] was “reduce”.

With `CCOC(=O)CCC(=O)Oc1cc(O)c2c(c1)C(=O)c1cc(C)cc(O)c1C2=O` [emodin succinyl ethyl ester, 1,8-dihydroxy-3-succinic acid monoethyl group-6-Methylanthraquinone] the “effect on TG in serum” value [1] was “significantly reduce”, the “effect on LDL-C in serum” value [1] was “significantly reduce” and the “effect on TC in serum” value [1] was “significantly reduce”. The LDL-C [1, 7] was 0.17 ± 0.08 mmol/L, the TC [1, 7] was 2.60 ± 0.74 mmol/L and the TG [1, 7] was 3.98 ± 0.63 mmol/L. For the same compound, the LDL-C [1, 8] was 0.15 ± 0.05 mmol/L, the TC [1, 8] was 2.36 ± 0.78 mmol/L and the TG [1, 8] was 4.12 ± 0.37 mmol/L. For the same compound, the LDL-C [1, 9] was 0.18 ± 0.03 mmol/L, the TC [1, 9] was 2.88 ± 0.34 mmol/L and the TG [1, 9] was 3.23 ± 0.12 mmol/L. For the same compound, the TC ([3]; 5 μmol/L) was 0.730 ± 0.168 mmol/L, the TG ([3]; 5 μmol/L) was 0.610 ± 0.308 mmol/L and the TC ([3]; 10 μmol/L) was 0.506 ± 0.197^###& mmol/L. The TG ([3]; 10 μmol/L) was 0.487 ± 0.347 mmol/L, the TC ([3]; 20 μmol/L) was 0.537 ± 0.145^###&& mmol/L and the TG ([3]; 20 μmol/L) was 0.414 ± 0.209 mmol/L. The “effect on level of TC of cells” value [3, 10] was “significantly reduce”, the “effect on level of TG of cells” value [3, 10] was “significantly reduce” and the TC [2, 7] was 0.069 ± 0.010 mmol/L. The TG [2, 7] was 0.105 ± 0.023 mmol/L, the TC [2, 8] was 0.078 ± 0.010 mmol/L and the TG [2, 8] was 0.127 ± 0.016 mmol/L. The TC [2, 9] was 0.059 ± 0.005 mmol/L, the TG [2, 9] was 0.079 ± 0.011 mmol/L and the “effect on TC in liver” value [2] was “reduce”. For the same compound, the “effect on TG in liver” value [2] was “reduce”, the wound healing speed [4] was “significantly faster wound healing speed” and the “effect on LDL-C in serum” value [5, 11] was “significantly reduce”. The “effect on TC in serum” value [5, 11] was “significantly reduce”, the “lowering LDL-C in serum compared with emodin” value [5, 12] was “better effects” and the “lowering TC in serum compared with emodin” value [5, 12] was “better effects”.

In the case of `Cc1cc(O)c2c(c1)C(=O)c1cc(O)cc(O)c1C2=O` [emodin, 1,3,8-trihydroxy-6-methylanthraquinone], the absolute bioavailability ([6]; female SD rats) is listed as 5% and the absolute bioavailability ([6]; male SD rats) is listed as 7.5%.
